Like-named read-outs stand apart in the source and are kept apart here.

The assay deals with aggregated MBP-HTT(1-89)Q46-His(6×) (Exonl-Q46) protein (Q46 protein aggregates) (Homo sapiens (Human), UniProt P42858, INS38QQQQQQQQQQQQQQQQQQQQQQQQQ). The assay can be described thus: Q46 Radioligand Binding Assay. The settings on record: read-out: Q46_RBA EC50_. Here is the method: Q46 Radioligand Binding Assay
For radioligand binding assays (RBA) MBP-HTT(1-89)Q46-His(6×) (“Exonl-Q46”) protein was generated based on a previous publication (Scherzinger et al. Cell, Vol. 90, 549-558, Aug. 8, 1997). For experiments 30 μM MBP-Exonl-Q46 was incubated with 150 μg/mL thrombin in assay buffer (150 mM NaCl, 50 mM Tris pH 8.0) and 2 mM CaCl2 for 16 hours at 37° C. Aggregated Exonl-Q46 was pelleted by centrifugation for 5 minutes at 13,000 rpm in a bench top centrifuge and re-dissolved in the same volume of assay buffer. Test compounds were prepared by titration in DMSO at 11 concentrations from 63 μM to 2 nM. For the RBA, Q46 protein aggregates and test compounds were pre-incubated in assay buffer for 20 minutes at room temperature, in 100 μL/well in a 96-well plate (pp, round bottom). Then, ligand was added in 50 μL/well and incubated for 60 minutes at 37° C. Final assay concentrations were 1 μM to 30 μM test compound, 1 μM Exonl-Q46 protein (equivalent monomer concentration) and 0.3 nM ligand [^3H3-methyl]-5-((5-methoxypyridin-2-yl)methoxy)-2-(pyrazin-2-yl)benzo[d]oxazole. Samples were transferred onto GF/B filter plates and washed 2× with 200 μL PBS using a Filtermate Harvester. After drying filter plates for 1 hour at 55° C., the back of the plates were sealed with foil and 30 μL/well scintillation fluid (Packard MicroScint 40) added, incubated for 15 minutes in the dark and counted in a MicroBeta reader. For analysis, replicate data from independent assay plates were normalized towards 0% and 100% inhibition using control wells of vehicle (0% inhibition) and 1 μM unlabelled [^3H3-methyl]-5-((5-methoxypyridin-2-yl)methoxy)-2-(pyrazin-2-yl)benzo[d]oxazole (100% inhibition). IC50 values were determined with a sigmoidal inhibition model with four variables (top, bottom, slope, IC50) in a global fit using the normalized replicate data.

[1] abbreviates: displacement of 0.3 nM [3H3-methyl]-5-((5-methoxypyridin-2-yl)methoxy)-2-(pyrazin-2-yl)benzo[d]oxazole from 1 μM Exonl-Q46 aggregates, method calls the values IC50.
[2] abbreviates: same radioligand displacement on Exonl-Q46 aggregates.

aggregated MBP-HTT(1-89)Q46-His(6×) (Exonl-Q46) protein (Q46 protein aggregates), sequence (P42858 other isoform, or with tags, fused parts or gaps, stated change not applied): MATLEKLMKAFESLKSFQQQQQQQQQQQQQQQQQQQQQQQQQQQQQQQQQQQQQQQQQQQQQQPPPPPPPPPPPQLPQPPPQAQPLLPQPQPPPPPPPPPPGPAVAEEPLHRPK

Regarding `COc1ccc(COc2ccc3c(c2)CN(c2ccc(OC)cn2)CC3)nc1` [Example 8, 2-(5-Methoxypyridin-2-yl)-7-[(5-methoxypyridin-2-yl)methoxy]-1,2,3,4-tetrahydroisoquinoline], the EC50 is 1.79 nM under setting [1] and less than 100 nM under setting [2].
The corresponding values for `COc1ccc(COc2ccc3c(c2)CN(c2cc(OC)ccn2)CC3)nc1` [Example 8.1] are 1.7 nM and less than 100 nM.
The corresponding values for `COc1ccc(COc2ccc3c(c2)CN(c2cccc(OC)n2)CC3)nc1` [Example 8.2] are 2.02 nM and less than 100 nM.
The corresponding values for `COc1ccc(COc2ccc3c(c2)C(C)N(C(=O)c2ccc(OC)nc2)CC3)nc1` (stereo not shown) [Example 9, 7-[(5-Methoxypyridin-2-yl)methoxy]-2-(6-methoxypyridine-3-carbonyl)-1-methyl-1,2,3,4-tetrahydroisoquinoline] are 14.5 nM and less than 100 nM.
Regarding `COc1ccc(COc2ccc3c(c2)CN(c2ccc(OC)nc2)C(=O)C3)nc1` [Example 10, 7-[(5-Methoxypyridin-2-yl)methoxy]-2-(6-methoxypyridin-3-yl)-1,2,3,4-tetrahydroisoquinolin-3-one], the 50% effective concentration (EC50) is, setting by setting: under setting [1], 186 nM; under setting [2], 100 to 500 nM.
For `COc1ccc(C(=O)Nc2ccc3c(c2)CN(c2ccc(OC)nc2)CC3)nc1` [Example 11, 5-Methoxy-N-[2-(6-methoxypyridin-3-yl)-1,2,3,4-tetrahydroisoquinolin-7-yl]pyridine-2-carboxamide], the concentration giving a half-maximal response (EC50) is, setting by setting: under setting [1], 1.3 nM; under setting [2], less than 100 nM.
The corresponding values for `COc1ccc(C(=O)Nc2ccc3c(c2)CN(C(=O)c2ccc(OC)nc2)CC3)nc1` [Example 12] are 1.72 nM and less than 100 nM.
On to `COc1ccc(C(=O)N(C)c2ccc3c(c2)CN(C(=O)c2ccc(OC)nc2)CC3)nc1` [Example 13], for which the EC50 is 1000 nM under setting [1] and greater than 500 nM under setting [2].
The corresponding values for `COc1ccc(COc2ccc3c(c2)CN(C(=O)c2cn(C)c(=O)cn2)CC3)nc1` [Example 15, 5-{7-[(5-Methoxypyridin-2-yl)methoxy]-1,2,3,4-tetrahydroisoquinoline-2-carbonyl}-1-methyl-1,2-dihydropyrazin-2-one] are 56.8 nM and less than 100 nM.
The corresponding values for `COc1ccc(COc2cc3c(cn2)CCN(C(=O)c2ccc(OC)nc2)C3)nc1` [Example 16, 7-[(5-Methoxypyridin-2-yl)methoxy]-2-(6-methoxypyridine-3-carbonyl)-1,2,3,4-tetrahydro-2,6-naphthyridine] are 39.5 nM and less than 100 nM.
For `COc1ccc(C(=O)N(C)c2ccc3c(c2)CN(c2ccc(OC)nc2)CC3)nc1` [Example 17, 5-Methoxy-N-[2-(6-methoxypyridin-3-yl)-1,2,3,4-tetrahydroisoquinolin-7-yl]-N-methylpyridine-2-carboxamide], the EC50 is, setting by setting: under setting [1], 333 nM; under setting [2], 100 to 500 nM.
On to `COc1ccc(COc2ccc3c(c2)CN(S(=O)(=O)c2ccc(OC)nc2)CC3)nc1` [Example 18, 7-[(5-Methoxypyridin-2-yl)methoxy]-2-[(6-methoxypyridin-3-yl)sulfonyl]-1,2,3,4-tetrahydroisoquinoline], for which the EC50 is, setting by setting: under setting [1], 390 nM; under setting [2], 100 to 500 nM.
As to `COc1ccc(OCCOc2ccc3c(c2)CN(C(=O)c2ccc(OC)nc2)CC3)nc1` [Example 19, 7-{2-[(5-Methoxypyridin-2-yl)oxy]ethoxy}-2-(6-methoxypyridine-3-carbonyl)-1,2,3,4-tetrahydroisoquinoline], the EC50 is 37.4 nM under setting [1] and less than 100 nM under setting [2].
The corresponding values for `COc1ccc(OCc2cn3c(n2)CN(C(=O)c2ccc(OC)nc2)CC3)nc1` [Example 20, 5-Methoxy-2-{[7-(6-methoxypyridine-3-carbonyl)-5H,6H,7H,8H-imidazo[1,2-a]pyrazin-2-yl]methoxy}pyridine] are 1000 nM and greater than 500 nM.

A word on the EC50: it is the concentration that produces a half-maximal response.
